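Briefly, cells in 96-well plates were exposed to five compound concentrations for 48 h, and endpoints were estimated by linear interpolation. TGI: concentration producing complete growth inhibition.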
What was measured:
Test in all cases: NCI tumour cell line growth inhibition, 48 h
HCT-15 colon = tested on: HCT-15 colon
OVCAR-4 ovarian = tested on: OVCAR-4 ovarian
NCI-H226 lung = tested on: NCI-H226 lung
786-0 renal = tested on: 786-0 renal
UO-31 renal = tested on: UO-31 renal
DMS 114 small cell lung = tested on: DMS 114 small cell lung
SK-MEL-5 melanoma = tested on: SK-MEL-5 melanoma
NCI-H522 lung = tested on: NCI-H522 lung
SF-539 CNS = tested on: SF-539 CNS
SNB-78 CNS = tested on: SNB-78 CNS
M14 melanoma = tested on: M14 melanoma
A549 NSCLC = tested on: A549 NSCLC
DLD-1 colon = tested on: DLD-1 colon
A498 renal = tested on: A498 renal
OVCAR-8 ovarian = tested on: OVCAR-8 ovarian
ACHN renal = tested on: ACHN renal
SNB-75 CNS = tested on: SNB-75 CNS
SN12C renal = tested on: SN12C renal
KM20L2 colon = tested on: KM20L2 colon
M19-MEL melanoma = tested on: M19-MEL melanoma
HOP-92 NSCLC = tested on: HOP-92 NSCLC
SF-268 CNS = tested on: SF-268 CNS
SK-MEL-2 melanoma = tested on: SK-MEL-2 melanoma
NCI-H460 lung = tested on: NCI-H460 lung
HCC-2998 colon = tested on: HCC-2998 colon
SR leukemia = tested on: SR leukemia
SK-MEL-28 melanoma = tested on: SK-MEL-28 melanoma
IGROV1 ovarian = tested on: IGROV1 ovarian
MALME-3M melanoma = tested on: MALME-3M melanoma
U251 CNS = tested on: U251 CNS
OVCAR-5 ovarian = tested on: OVCAR-5 ovarian
DMS 273 small cell lung = tested on: DMS 273 small cell lung
LOX IMVI melanoma = tested on: LOX IMVI melanoma
LXFL 529 NSCLC = tested on: LXFL 529 NSCLC
XF 498 CNS = tested on: XF 498 CNS
COLO 205 colon = tested on: COLO 205 colon
MOLT-4 leukemia = tested on: MOLT-4 leukemia
UACC-257 melanoma = tested on: UACC-257 melanoma
HL-60(TB) leukemia = tested on: HL-60(TB) leukemia
SK-OV-3 ovarian = tested on: SK-OV-3 ovarian
CCRF-CEM leukemia = tested on: CCRF-CEM leukemia
SF-295 CNS = tested on: SF-295 CNS
HCT-116 colon = tested on: HCT-116 colon
HT29 colon = tested on: HT29 colon
HOP-62 NSCLC = tested on: HOP-62 NSCLC
NCI-H23 lung = tested on: NCI-H23 lung
RPMI-8226 leukemia = tested on: RPMI-8226 leukemia
SNB-19 CNS = tested on: SNB-19 CNS
TK-10 renal = tested on: TK-10 renal
SW-620 colon = tested on: SW-620 colon
KM12 colon = tested on: KM12 colon
CAKI-1 renal = tested on: CAKI-1 renal
UACC-62 melanoma = tested on: UACC-62 melanoma
EKVX NSCLC = tested on: EKVX NSCLC
K-562 leukemia = tested on: K-562 leukemia
HOP-18 NSCLC = tested on: HOP-18 NSCLC
OVCAR-3 ovarian = tested on: OVCAR-3 ovarian
RXF-631 renal = tested on: RXF-631 renal

CCN(CC)C(=S)SCC(=O)Nc1nc2c(s1)CCCC2
TGI (HCT-15 colon): > 100 µM | TGI (OVCAR-4 ovarian): > 100 µM | TGI (NCI-H226 lung): > 100 µM | TGI (786-0 renal): > 100 µM | TGI (UO-31 renal): > 100 µM | TGI (DMS 114 small cell lung): > 100 µM | TGI (SK-MEL-5 melanoma): 49.7 µM | TGI (NCI-H522 lung): 65.3 µM | TGI (SF-539 CNS): > 100 µM | TGI (SNB-78 CNS): > 100 µM | TGI (M14 melanoma): > 100 µM | TGI (A549 NSCLC): > 100 µM | TGI (DLD-1 colon): > 100 µM | TGI (A498 renal): > 100 µM | TGI (OVCAR-8 ovarian): > 100 µM | TGI (ACHN renal): > 100 µM | TGI (SNB-75 CNS): > 100 µM | TGI (SN12C renal): > 100 µM | TGI (KM20L2 colon): > 100 µM | TGI (M19-MEL melanoma): > 100 µM | TGI (HOP-92 NSCLC): > 100 µM | TGI (SF-268 CNS): > 100 µM | TGI (SK-MEL-2 melanoma): > 100 µM | TGI (NCI-H460 lung): > 100 µM | TGI (HCC-2998 colon): > 100 µM | TGI (SR leukemia): 90.7 µM | TGI (SK-MEL-28 melanoma): > 100 µM | TGI (IGROV1 ovarian): > 100 µM | TGI (MALME-3M melanoma): > 100 µM | TGI (U251 CNS): > 100 µM | TGI (OVCAR-5 ovarian): > 100 µM | TGI (DMS 273 small cell lung): > 100 µM | TGI (LOX IMVI melanoma): > 100 µM | TGI (LXFL 529 NSCLC): > 100 µM | TGI (XF 498 CNS): > 100 µM | TGI (COLO 205 colon): > 100 µM | TGI (MOLT-4 leukemia): > 100 µM | TGI (UACC-257 melanoma): > 100 µM | TGI (HL-60(TB) leukemia): 47.6 µM | TGI (SK-OV-3 ovarian): > 100 µM | TGI (CCRF-CEM leukemia): > 100 µM | TGI (SF-295 CNS): > 100 µM | TGI (HCT-116 colon): > 100 µM | TGI (HT29 colon): > 100 µM | TGI (HOP-62 NSCLC): > 100 µM | TGI (NCI-H23 lung): > 100 µM | TGI (RPMI-8226 leukemia): > 100 µM | TGI (SNB-19 CNS): > 100 µM | TGI (TK-10 renal): > 100 µM | TGI (SW-620 colon): > 100 µM | TGI (KM12 colon): > 100 µM

O=C(CCC(=O)Nc1cccc(C(F)(F)F)c1)CC(=O)c1ccc2ccccc2c1
TGI (HCT-15 colon): > 100 µM | TGI (OVCAR-4 ovarian): > 100 µM | TGI (NCI-H226 lung): > 100 µM | TGI (786-0 renal): > 100 µM | TGI (UO-31 renal): > 100 µM | TGI (DMS 114 small cell lung): > 100 µM | TGI (CAKI-1 renal): > 100 µM | TGI (SK-MEL-5 melanoma): > 100 µM | TGI (NCI-H522 lung): > 100 µM | TGI (SF-539 CNS): > 100 µM | TGI (SNB-78 CNS): > 100 µM | TGI (M14 melanoma): > 100 µM | TGI (A549 NSCLC): > 100 µM | TGI (DLD-1 colon): > 100 µM | TGI (UACC-62 melanoma): > 100 µM | TGI (A498 renal): > 100 µM | TGI (OVCAR-8 ovarian): > 100 µM | TGI (ACHN renal): > 100 µM | TGI (SN12C renal): > 100 µM | TGI (EKVX NSCLC): > 100 µM | TGI (K-562 leukemia): > 100 µM | TGI (KM20L2 colon): > 100 µM | TGI (M19-MEL melanoma): > 100 µM | TGI (HOP-92 NSCLC): > 100 µM | TGI (SF-268 CNS): > 100 µM | TGI (SK-MEL-2 melanoma): > 100 µM | TGI (NCI-H460 lung): > 100 µM | TGI (HOP-18 NSCLC): > 100 µM | TGI (HCC-2998 colon): > 100 µM | TGI (IGROV1 ovarian): > 100 µM | TGI (MALME-3M melanoma): > 100 µM | TGI (U251 CNS): > 100 µM | TGI (OVCAR-5 ovarian): > 100 µM | TGI (OVCAR-3 ovarian): > 100 µM | TGI (DMS 273 small cell lung): > 100 µM | TGI (LOX IMVI melanoma): > 100 µM | TGI (LXFL 529 NSCLC): > 100 µM | TGI (XF 498 CNS): > 100 µM | TGI (COLO 205 colon): > 100 µM | TGI (MOLT-4 leukemia): > 100 µM | TGI (UACC-257 melanoma): > 100 µM | TGI (HL-60(TB) leukemia): > 100 µM | TGI (SK-OV-3 ovarian): > 100 µM | TGI (CCRF-CEM leukemia): > 100 µM | TGI (SF-295 CNS): > 100 µM | TGI (HCT-116 colon): > 100 µM | TGI (HT29 colon): > 100 µM | TGI (RXF-631 renal): > 100 µM | TGI (NCI-H23 lung): > 100 µM | TGI (RPMI-8226 leukemia): > 100 µM | TGI (SNB-19 CNS): > 100 µM | TGI (TK-10 renal): > 100 µM | TGI (SW-620 colon): > 100 µM | TGI (KM12 colon): > 100 µM

From PubChem BioAssay (NCI)
